The subject of assay [1] is renal cancer cell line (ACHN). The assay can be described thus: Cancer proliferation inhibitory activity (SRB, GI50), ACHN. The format is cell-based. The following applies: Homo sapiens, 48 hours. An outline of the steps: (§1)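 Cells grown in RPMI 1640 with 10% FBS at 37 °C, 5% CO2, then exposed to compound (0.1–10 μM) or 0.1% DMSO for 48 h. After TCA fixation and sulforhodamine B staining, bound dye was solubilised and read at OD540. GI50 derived from the resulting curves.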

Assay [2] concerns breast cancer cell line (MDA-MB-231). Put plainly: Cancer proliferation inhibitory activity (SRB, GI50), MDA-MB-231. Type of assay: cell-based. As to conditions: Homo sapiens, 48 hours. An outline of the steps: as §1
The subject of assay [3] is prostate cancer cell line (PC-3). Put plainly: Cancer proliferation inhibitory activity (SRB, GI50), PC-3. The format is cell-based. The following applies: Homo sapiens, 48 hours. An outline of the steps:
as §1

For assay [4], the system named is gastric cancer cell line (NUGC-3). The assay can be described thus: Cancer proliferation inhibitory activity (SRB, GI50), NUGC-3. The format is cell-based. The following applies: Homo sapiens, 48 hours. An outline of the steps: as §1
Assay [5] has as its system colorectal cancer cell line (HCT-15). Put plainly: Cancer proliferation inhibitory activity (SRB, GI50), HCT-15. Type of assay: cell-based. As to conditions: Homo sapiens, 48 hours. An outline of the steps:
as §1

Assay [6] deals with lung cancer cell line (NCl-H23). Put plainly: Cancer proliferation inhibitory activity (SRB, GI50), NCI-H23. The following applies: Homo sapiens, 48 hours. The format is cell-based. An outline of the steps:
as §1

Another assay addresses HDAC 1 (Homo sapiens, UniProt Q13547). The assay can be described thus: HDAC enzyme fluorescence assay, HDAC 1. The following applies: recombinant HDAC enzyme, Boc-Lys(acetyl)-AMC. Type of assay: biochemical. As to the method: (§2) Particularly, HDAC enzyme analysis was performed based on a uniform fluorescence emission assay. First, the compounds of examples of the present invention or comparative example 1 were diluted at different concentrations, which were treated to the analysis buffer containing 25 mM HEPES (pH 8.0), 137 mM NaCl, 1 mM MgCl2 and 2.7 mM KCL, followed by culture of the recombinant HDAC enzyme. 10 minutes later, Boc-Lys(acetyl)-AMC, the fluorescence inducing substrate, was added thereto, followed by further culture at 37° C. At this time, the concentration of the fluorescence inducing substrate and the culture time were adjusted according to the isotypes of the HDAC enzyme. The reaction was terminated by treating trypsin at room temperature for 20 minutes. The fluorescence intensity was measured using a fluorescence analyzer at an excitation wavelength of 380 nm and an emission wavelength of 460 nm, respectively. The inhibition rate was calculated from the measured fluorescence intensity of each well with comparing to that of the control well. IC50 of the compound was calculated by analyzing the dose-reaction inhibition curve.

Another assay concerns the target T1, HDAC 6 (Homo sapiens, UniProt Q9UBN7).
T1 sequence (Q9UBN7 1-1215): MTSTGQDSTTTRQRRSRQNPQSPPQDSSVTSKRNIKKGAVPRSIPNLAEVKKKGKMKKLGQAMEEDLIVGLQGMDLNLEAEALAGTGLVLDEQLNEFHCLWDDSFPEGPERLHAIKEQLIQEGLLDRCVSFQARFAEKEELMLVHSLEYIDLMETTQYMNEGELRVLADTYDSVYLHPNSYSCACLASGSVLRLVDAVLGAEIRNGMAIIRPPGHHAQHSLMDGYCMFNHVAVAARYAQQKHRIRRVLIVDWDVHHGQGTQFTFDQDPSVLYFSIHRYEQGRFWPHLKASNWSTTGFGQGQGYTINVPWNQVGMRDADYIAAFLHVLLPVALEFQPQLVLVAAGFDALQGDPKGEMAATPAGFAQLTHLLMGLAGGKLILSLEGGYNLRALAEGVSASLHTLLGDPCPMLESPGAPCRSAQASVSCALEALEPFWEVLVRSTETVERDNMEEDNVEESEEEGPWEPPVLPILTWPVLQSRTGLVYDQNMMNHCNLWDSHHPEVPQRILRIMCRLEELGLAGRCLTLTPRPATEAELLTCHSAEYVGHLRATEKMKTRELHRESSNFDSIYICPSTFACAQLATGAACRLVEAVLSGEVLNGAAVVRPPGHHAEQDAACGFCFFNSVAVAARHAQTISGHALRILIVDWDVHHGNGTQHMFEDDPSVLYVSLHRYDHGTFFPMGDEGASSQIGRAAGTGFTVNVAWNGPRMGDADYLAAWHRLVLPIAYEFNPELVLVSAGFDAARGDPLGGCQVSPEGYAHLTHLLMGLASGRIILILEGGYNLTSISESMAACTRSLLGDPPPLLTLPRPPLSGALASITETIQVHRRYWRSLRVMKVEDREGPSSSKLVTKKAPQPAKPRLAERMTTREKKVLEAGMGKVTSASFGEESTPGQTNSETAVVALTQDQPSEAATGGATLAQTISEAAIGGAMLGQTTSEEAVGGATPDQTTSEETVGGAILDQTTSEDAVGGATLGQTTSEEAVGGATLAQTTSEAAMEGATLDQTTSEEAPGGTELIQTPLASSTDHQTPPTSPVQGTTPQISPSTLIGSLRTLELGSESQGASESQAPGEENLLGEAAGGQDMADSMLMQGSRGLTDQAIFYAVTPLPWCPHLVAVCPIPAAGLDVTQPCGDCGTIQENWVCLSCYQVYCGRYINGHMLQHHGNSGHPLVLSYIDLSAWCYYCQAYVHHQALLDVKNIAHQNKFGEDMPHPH
The assay can be described thus: HDAC enzyme fluorescence assay, HDAC 6. The format is biochemical. As to conditions: recombinant HDAC enzyme, Boc-Lys(acetyl)-AMC. As to the method:
as §2

The target of a further assay is T2, HDAC 8 (Homo sapiens, UniProt Q9BY41).
T2 sequence (Q9BY41 1-377): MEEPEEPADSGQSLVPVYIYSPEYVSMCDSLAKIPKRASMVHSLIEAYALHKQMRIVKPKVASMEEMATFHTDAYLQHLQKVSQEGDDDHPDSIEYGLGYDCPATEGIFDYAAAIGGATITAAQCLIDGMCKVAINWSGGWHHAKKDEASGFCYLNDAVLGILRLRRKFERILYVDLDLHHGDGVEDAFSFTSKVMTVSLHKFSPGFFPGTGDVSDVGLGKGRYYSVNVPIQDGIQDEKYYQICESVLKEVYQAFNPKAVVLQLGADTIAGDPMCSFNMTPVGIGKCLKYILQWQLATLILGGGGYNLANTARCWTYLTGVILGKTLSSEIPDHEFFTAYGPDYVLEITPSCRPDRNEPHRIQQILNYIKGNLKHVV
The assay can be described thus: HDAC enzyme fluorescence assay, HDAC 8. Type of assay: biochemical. The following applies: for Inhibitory activity (%) HDAC 8: (HDAC inhibitory activity of example compound/HDAC inhibitory activity of SAHA) × 100. On the set-up: Inhibitory activity (%) HDAC 8: concentration or dose not given beside the values. An outline of the steps: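 Recombinant HDAC8 preincubated 10 min with compound in 25 mM HEPES pH 8.0, 137 mM NaCl, 1 mM MgCl2, 2.7 mM KCl, then Boc-Lys(acetyl)-AMC added at 37° C (level and time set per isoform). Trypsin development 20 min at room temperature, fluorescence 380/460 nm; activity expressed as percent relative to SAHA reference.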

pIC50: −log10 of the molar value.

HDAC 1, sequence (Q13547 whole entry, species assumed): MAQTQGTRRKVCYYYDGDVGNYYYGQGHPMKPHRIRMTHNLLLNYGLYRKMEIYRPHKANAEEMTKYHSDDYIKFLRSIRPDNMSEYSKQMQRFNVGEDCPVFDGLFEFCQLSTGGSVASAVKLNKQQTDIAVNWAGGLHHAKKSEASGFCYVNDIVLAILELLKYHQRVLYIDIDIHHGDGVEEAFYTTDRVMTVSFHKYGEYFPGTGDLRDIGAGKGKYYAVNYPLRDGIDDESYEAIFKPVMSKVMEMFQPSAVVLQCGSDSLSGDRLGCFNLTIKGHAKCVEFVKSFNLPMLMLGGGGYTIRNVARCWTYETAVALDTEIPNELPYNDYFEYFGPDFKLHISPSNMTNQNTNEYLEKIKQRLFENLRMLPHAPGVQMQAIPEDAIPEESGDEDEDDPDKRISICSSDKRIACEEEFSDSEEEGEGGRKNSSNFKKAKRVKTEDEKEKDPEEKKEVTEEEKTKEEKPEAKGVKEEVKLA

For `[O-][S+](C/C=C\SSCc1ccccc1)c1ccccc1` (stereo not drawn) [Example 6, (Z)-1-benzyl-2-(3-(phenylsulfinyl)prop-1-enyl)disulfane], the 50% growth inhibitory concentration (GI50) was 5.42 µM in assay [1]; 3.96 µM in assay [2]; 5.35 µM in [3]; 3.25 µM in [4]; 6.48 µM in assay [5]; 4.91 µM in assay [6]. Besides, the negative-log IC50 (pIC50) on HDAC 1 was 5.41; at HDAC 6, 4.31; on HDAC 8 (recombinant HDAC enzyme, Boc-Lys(acetyl)-AMC, read-out: IC50 HDAC 8), 7.37. In addition, the “Inhibitory activity (%) HDAC 8” value on HDAC 8 was determined as 129.1%.

As for `COc1cccc([S+]([O-])C/C=C\SSCc2ccc(Cl)cc2)c1` (stereo not drawn) [Example 24, (Z)-1-(4-chlorobenzyl)-2-(3-(3-methoxyphenylsulfinyl)prop-1-enyl)disulfane], the GI50 in assay [1] is 5.82 µM; in assay [2] it was 3.57 µM; in assay [3] it was 5.97 µM; in [4] it was 5.8 µM; in assay [5], 3.65 µM; in assay [6], 5.27 µM. Moreover, the negative logarithm of the IC50 (pIC50) at HDAC 1 was 5.90. Moreover, the “Inhibitory activity (%) HDAC 8” value on HDAC 8 is 140.4%.

By GI50 is commonly meant the concentration that inhibits growth by half. Broadly, the pIC50 is −log10 of the IC50, conventionally taken in molar units.

Source of the values: patent US11230525B2, “Organic sulfur compound, method for preparing same, and pharmaceutical composition for preventing or treating cancer or an inflammatory disease, containing same as active ingredient” (SOOKMYUNG WOMENS UNIVERSITY INDUSTRY-ACADEMIC COOPERATION …, priority 2016, dated 2022).
